From patent US12011444B2, “N-substituted indole derivatives as PGE2 receptor modulators” (Idorsia Pharmaceuticals Ltd, priority 2015, dated 2024)

Assays:
PTRGER4 (EP4) = PTRGER4 (EP4) (Homo sapiens (Human), UniProt P35408); assay: hEP4 b-arrestin assay (PathHunter HEK 293 PTGER4 b-arrestin cells); type: cell-based
Summary of the method: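 Stably transfected HEK293 cells carrying EP4–ProLink and β-arrestin 2–EA (β-gal fragment complementation), pre-incubated with compound 15 min at 37 °C, then stimulated with PGE2 (20 nM final) for 120 min at 37 °C. Chemiluminescence read after 1 h detection reagent at room temperature; activity per concentration expressed as percent of DMSO control.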

PTGER2 (EP2) = PTGER2 (EP2) (Homo sapiens (Human), UniProt P43116); assay: hEP2 b-arrestin assay (PathHunter HEK 293 PTGER2 b-arrestin cells); type: cell-based
Summary of the method: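 HEK293 cells expressing ProLink-tagged EP2 and EA-fused β-arrestin 2 (enzyme fragment complementation) were seeded 24 h, pre-incubated with compound 15 min at 37 °C, then stimulated with 5 μM PGE2 (final) for 120 min.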

[1] = antagonistic activity on hEP4, mean where measured multiple times
[2] = antagonistic activity on hEP2, mean where measured multiple times
[3] = hEP4 b-arrestin assay (values without asterisk)
[4] = hEP2 b-arrestin assay (values without asterisk)

PTRGER4 (EP4), sequence (P35408 whole entry, looked up, the tested form may be a part): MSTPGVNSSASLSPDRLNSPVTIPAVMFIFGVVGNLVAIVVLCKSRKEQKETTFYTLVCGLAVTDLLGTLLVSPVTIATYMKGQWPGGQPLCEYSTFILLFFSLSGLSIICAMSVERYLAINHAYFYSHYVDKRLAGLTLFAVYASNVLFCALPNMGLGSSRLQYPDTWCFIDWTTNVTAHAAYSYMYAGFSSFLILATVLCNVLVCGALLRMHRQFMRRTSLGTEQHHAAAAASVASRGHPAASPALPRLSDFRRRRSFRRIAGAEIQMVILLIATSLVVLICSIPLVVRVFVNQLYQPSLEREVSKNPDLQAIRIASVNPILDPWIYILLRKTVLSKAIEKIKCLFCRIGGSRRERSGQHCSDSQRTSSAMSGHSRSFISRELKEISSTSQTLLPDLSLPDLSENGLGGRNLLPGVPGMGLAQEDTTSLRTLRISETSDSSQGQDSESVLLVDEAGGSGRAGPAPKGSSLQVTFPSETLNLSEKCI
PTGER2 (EP2), sequence (P43116 whole entry, the tested form may be a part): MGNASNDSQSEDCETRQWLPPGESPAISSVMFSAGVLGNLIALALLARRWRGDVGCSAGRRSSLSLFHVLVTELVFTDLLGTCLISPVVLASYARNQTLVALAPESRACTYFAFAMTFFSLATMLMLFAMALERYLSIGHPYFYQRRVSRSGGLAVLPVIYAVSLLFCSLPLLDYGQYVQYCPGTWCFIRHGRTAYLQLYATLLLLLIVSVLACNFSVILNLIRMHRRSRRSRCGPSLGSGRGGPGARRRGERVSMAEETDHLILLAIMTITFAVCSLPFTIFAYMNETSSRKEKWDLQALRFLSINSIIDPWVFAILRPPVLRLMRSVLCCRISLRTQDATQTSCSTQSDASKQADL

IC50 (PTRGER4 (EP4); [1]) [nM]	IC50 (PTGER2 (EP2); [2]) [nM]	IC50 (PTRGER4 (EP4); [3]) [nM]	IC50 (PTGER2 (EP2); [4]) [nM]	SMILES
429	383			COc1cccc2c1cc(C)n2CCNc1cc(-c2ccc(Cn3cccn3)c(F)c2)ncn1 [compound 308]
		309	35	CCOc1cc(-c2cc(NCCn3c(C)cc4c(OC)ccc(F)c43)ncn2)sc1CC(=O)O [Example 847, (3-Ethoxy-5-{6-[2-(7-fluoro-4-methoxy-2-methyl-indol-1-yl)-ethylamino]-pyrimidin-4-yl}-thiophen-2-yl)-acetic acid]
216	111			CCc1cc(-c2cc(NCCn3c(C)cc4cc(Cl)cc(F)c43)ncn2)sc1C(=O)O [compound 242]
		28	18	Cc1ccc(F)c2c1cc(C#N)n2CCNc1cc(-c2cc(F)c(C(=O)O)s2)ncn1 [Example 851, 5-{6-[2-(2-Cyano-7-fluoro-4-methyl-indol-1-yl)-ethylamino]-pyrimidin-4-yl}-3-fluoro-thiophene-2-carboxylic acid]
691	69			Cc1cc(F)cc2c1cc(C)n2CCNc1cc(-c2ccc3cc[nH]c3c2)ncn1 [compound 10, [2-(6-Fluoro-2,4-dimethyl-indol-1-yl)-ethyl]-[6-(1H-indol-6-yl)-pyrimidin-4-yl]-amine]
57	8			COc1cc(F)cc2c1cc(C)n2CCNc1cc(-c2cc(F)c(C(=O)O)s2)ncn1 [compound 113]
		67	44	COc1ccc(F)c2c1cc(C#N)n2CCNc1cc(-c2ccc3[nH]c(=O)[nH]c3c2)ncn1 [Example 987, 7-Fluoro-1-{2-[6-(2-oxo-2,3-dihydro-1H-benzo[d]imidazol-5-yl)-pyrimidin-4-ylamino]-ethyl}-4-methoxy-1H-indole-2-carbonitrile]
		16	30	CCCc1cc(-c2cc(NCCn3c(C#N)cc4c(OC)ccc(F)c43)ncn2)ccc1C(=O)O [Example 947, 4-{6-[2-(2-Cyano-7-fluoro-4-methoxy-indol-1-yl)-ethylamino]-pyrimidin-4-yl}-2-propyl-benzoic acid]
519	18			Cc1cc(-c2cc(NCCn3c(C)cc4c(C)ccc(F)c43)ncn2)cc(F)c1C(=O)O [compound 218]
		54	56	CCOc1cc(-c2cc(NCCn3c(C#N)cc4c(OC)cc(F)c(F)c43)ncn2)ccc1C(=O)O [Example 957, 4-{6-[2-(2-Cyano-6,7-difluoro-4-methoxy-indol-1-yl)-ethylamino]-pyrimidin-4-yl}-2-ethoxy-benzoic acid]
		450	131	COc1ccc(F)c2c1cc(C#N)n2CCNc1cc(-c2ccnc(OC(F)F)c2)ncn1 [Example 1006, 1-{2-[6-(2-Difluoromethoxy-pyridin-4-yl)-pyrimidin-4-ylamino]-ethyl}-7-fluoro-4-methoxy-1H-indole-2-carbonitrile]
		28	9	CCOc1cc(-c2cc(NCCn3c(C)cc4c(OC)ccc(F)c43)ncn2)ccc1OCC(=O)O [Example 810, (2-Ethoxy-4-{6-[2-(7-fluoro-4-methoxy-2-methyl-indol-1-yl)-ethylamino]-pyrimidin-4-yl}-phenoxy)-acetic acid]
894	338			COc1ccc(F)c2c1cc(C)n2CCNc1cc(-c2ccc(N3CCCC3=O)cc2)ncn1 [compound 318]
23	4			CNc1nnc(-c2ccc(-c3cc(NCCn4c(C)cc5c(C)ccc(F)c54)ncn3)cc2)s1 [compound 324, [2-(7-Fluoro-2,4-dimethyl-indol-1-yl)-ethyl]-{6-[4-(5-methylamino-[1,3,4]thiadiazol-2-yl)-phenyl]-pyrimidin-4-yl}-amine]
974	9			CCc1cc(-c2cc(NCCn3c(C)cc4cc(F)cc(F)c43)ncn2)ccc1C(=O)O [compound 122, 4-{6-[2-(5,7-Difluoro-2-methyl-indol-1-yl)-ethylamino]-pyrimidin-4-yl}-2-ethyl-benzoic acid]
294	11			CCOc1cc(-c2cc(NCCn3c(C)cc4c(C)cc(F)cc43)ncn2)ccc1C(=O)O [compound 282]
58	13			CCc1cc(-c2cc(NCCn3c(C)cc4c(C)ccc(F)c43)ncn2)sc1C(=O)O [compound 103]
529	6			COc1cccc2c1cc(C)n2CCNc1cc(-c2ccc(C(=O)O)c(C3CC3)c2)ncn1 [compound 175, 2-Cyclopropyl-4-{6-[2-(4-methoxy-2-methyl-indol-1-yl)-ethylamino]-pyrimidin-4-yl}-benzoic acid]
		39	6	COc1ccc(F)c2c1cc(C#N)n2CCNc1cc(-c2cc3ccc(C(=O)O)cc3[nH]2)ncn1 [Example 1076, 2-(6-((2-(2-Cyano-7-fluoro-4-methoxy-1H-indol-1-yl)ethyl)amino)pyrimidin-4-yl)-1H-indole-6-carboxylic acid]
629	482			CCc1cccc2c1cc(C)n2CCNc1cc(-c2ccc(C(=O)O)c(CC(C)C)c2)ncn1 [compound 327]

IC50 (PTRGER4 (EP4); [1]) [nM]	IC50 (PTGER2 (EP2); [2]) [nM]	IC50 (PTRGER4 (EP4); [3]) [nM]	IC50 (PTGER2 (EP2); [4]) [nM]	SMILES
		63	7	CCOc1cc(-c2cc(NCCn3c(C)cc4c(Cl)c(F)cc(Cl)c43)ncn2)sc1C(=O)O [Example 883, 5-{6-[2-(4,7-Dichloro-5-fluoro-2-methyl-indol-1-yl)-ethylamino]-pyrimidin-4-yl}-3-ethoxy-thiophene-2-carboxylic acid]
207	408			Cc1nnc(-c2ccc(-c3cc(NCCn4c(C)cc5c(C)ccc(F)c54)ncn3)cc2F)o1 [compound 306]
567	7			CCOc1cc(-c2cc(NCCn3c(C#N)cc4ccccc43)ncn2)ccc1C(=O)O [compound 138, 4-{6-[2-(2-Cyano-indol-1-yl)-ethylamino]-pyrimidin-4-yl}-2-ethoxy-benzoic acid]
955	49			COc1ccc(F)c2c1cc(C)n2CCNc1cc(-c2ccc(C(=O)O)cc2)ncn1 [compound 109]
32	11			COc1cc(F)cc2c1cc(C)n2CCNc1cc(-c2ccc3c(c2)CCN3)ncn1 [compound 62, [6-(2,3-Dihydro-1H-indol-5-yl)-pyrimidin-4-yl]-[2-(6-fluoro-4-methoxy-2-methyl-indol-1-yl)-ethyl]-amine]
		28	8	COc1ccc(F)c2c1cc(C#N)n2CCNc1cc(-c2ccc3[nH]cnc3c2)ncn1 [Example 984, 1-{2-[6-(1H-Benzoimidazol-5-yl)-pyrimidin-4-ylamino]-ethyl}-7-fluoro-4-methoxy-1H-indole-2-carbonitrile]
69	4			COc1ccc(F)c2c1cc(C)n2CCNc1cc(-c2cc(F)c(C(=O)O)s2)ncn1 [compound 112]
557	20			COc1cccc2c1cc(C)n2CCNc1cc(-c2ccc(-n3cccn3)cc2)ncn1 [compound 78, [2-(4-Methoxy-2-methyl-indol-1-yl)-ethyl]-[6-(4-pyrazol-1-yl-phenyl)-pyrimidin-4-yl]-amine]
895	94			COc1cccc2c1cc(C)n2CCNc1cc(-c2ccc(CN)c(F)c2)ncn1 [compound 24]
123	27			Cc1ccc(F)c2c1cc(C)n2CCNc1cc(-c2cc(Cl)c(C(=O)O)s2)ncn1 [compound 18, 3-Chloro-5-{6-[2-(7-fluoro-2,4-dimethyl-indol-1-yl)-ethylamino]-pyrimidin-4-yl}-thiophene-2-carboxylic acid]
		100	60	CCc1nc(-c2cc(NCCn3c(C)cc4c(OC)ccc(F)c43)ncn2)sc1C(=O)O [Example 1037, 4-Ethyl-2-{6-[2-(7-fluoro-4-methoxy-2-methyl-indol-1-yl)-ethylamino]-pyrimidin-4-yl}-thiazole-5-carboxylic acid]
381	260			CCCc1cc(-c2cc(NCCn3c(C)cc4cc(OC)cc(F)c43)ncn2)cc(Cl)c1C(=O)O [compound 372]
		18	13	CNc1cc(-c2cc(NCCn3c(C#N)cc4c(OC)cccc43)ncn2)ccc1C(=O)O [Example 958, 4-{6-[2-(2-Cyano-4-methoxy-indol-1-yl)-ethylamino]-pyrimidin-4-yl}-2-methylamino-benzoic acid]
691	47			CCOc1cc(-c2cc(NCCn3c(C)cc4cc(C)cc(F)c43)ncn2)ccc1C(=O)O [compound 285]
995	146			Cc1ccc(F)c2c1cc(C)n2CCNc1cc(-c2ccc(C(=O)NCCO)cc2)ncn1 [compound 168]
		60	249	COc1ccc(F)c2c1cc(C#N)n2CCNc1cc(-c2ccc(C3(F)COC3)s2)ncn1 [Example 1055, 7-Fluoro-1-(2-{6-[5-(3-fluoro-oxetan-3-yl)-thiophen-2-yl]-pyrimidin-4-ylamino}-ethyl)-4-methoxy-1H-indole-2-carbonitrile]
698	151			COc1ccc(Cl)c2c1cc(C)n2CCNc1cc(-c2ccc3[nH]cnc3c2)ncn1 [compound 56]
40	5			CCOc1cc(-c2cc(NCCn3c(C)cc4c(Cl)cc(Cl)cc43)ncn2)sc1C(=O)O [compound 238]
733	131			Cc1ccc(F)c2c1cc(C)n2CCNc1cc(-c2cc(F)c(S(N)(=O)=O)c(F)c2)ncn1 [compound 166]

SMILES	IC50 (PTRGER4 (EP4); [1]) [nM]	IC50 (PTGER2 (EP2); [2]) [nM]	IC50 (PTRGER4 (EP4); [3]) [nM]	IC50 (PTGER2 (EP2); [4]) [nM]
CCCCOc1cc(-c2cc(NCCn3c(C#N)cc4c(OC)ccc(F)c43)ncn2)cc(F)c1C(=O)O [Example 905, 2-Butoxy-4-{6-[2-(2-cyano-7-fluoro-4-methoxy-indol-1-yl)-ethylamino]-pyrimidin-4-yl}-6-fluoro-benzoic acid]			5	22
